Assay results taken from patent publication US6475985B1, “Nucleosides with antiviral and anticancer activity” (priority 1998, dated 2002).
Read-outs that look alike come from different tables or passages of the source.

Columns and labels:
[1] = test system: CEM T-cell leukemia cells; assay: Test G: activity against CEM T-cell leukemia cells; type: cell-based
Protocol: (§1) The activity of representative compounds of formula VII against MCF-7 breast cancer cells and CEM T-cell leukemia cells were determined using a procedure similar to that described by C. R. Wagner, et al. Cancer Research, 1997, 57, 2341-2345.

[2] = test system: MCF-7 breast cancer cells; assay: Test G: activity against MCF-7 breast cancer cells; type: cell-based
Protocol: as §1

[3] = test system: HIV-1; assay: Test A: antiviral activity against HIV-1 isolates and laboratory strain in peripheral blood lymphocytes; type: cell-based; settings: Human immunodeficiency virus 1, Lymphocyte, read-out: Mean IC50 in PBLs
Protocol: (§2) The antiviral activity of representative compounds of the invention was determined with matched HIV-1 isolates and a laboratory HIV-1 strain as previously described (D. L. Mayers et al., Proc. Natl. Acad. Sci., USA 1995, 92, 215-219; and C. R. Wagner et al., Bioorganic and Medicinal Chemistry Letters, 1995, 5, 1819-1824).

[4] = test system: PBMCs; settings: human
Protocol: as §2

[5] = Test F: stability in human plasma; type: in vitro ADME; settings: 37 C
[6] = in vitro; settings: cell media

Q: For `COC(=O)[C@H](Cc1c[nH]c2ccccc12)NP(=O)(O)OC[C@H]1O[C@@H](n2cc(F)c(=O)[nH]c2=O)C[C@@H]1O` [Compound 37, 5-fluoro-2′deoxy-5′-uridyl N-((L)-1-carbomethoxy-2-indol-3-ylethyl)phosphoramidate], which CC50 [1] is on record?
A: The CC50 was 320 nM.

Q: And the “Half-life Cell Media 37 C” value?
A: The value was greater than 48 h.

Q: And the CC50 [2]?
A: Its CC50 is 25 nM.

Q: What does the source list for `Nc1nccc2c1ncn2[C@@H]1O[C@H](CO)[C@@H](O)[C@H]1O` [DZA, 3-deaza adenosine, reference compound]?
A: IC50 ([3]; HIV-1 isolate A012 post-AZT): 165 nM; IC50 ([3]; HIV-1 isolate A012 pre-AZT): 144 nM; CC80 [4]: 1000 nM

Q: With `O=c1[nH]c(=O)n([C@H]2C[C@H](O)[C@@H](CO)O2)cc1F` [FUdR, 5-fluorodeoxyuridine, reference compound] as the compound, how does the CC50 ([1]; T-cell) read?
A: The CC50 was 1 nM.

Q: And the half-life [5]?
A: The half-life was 0.0833 to 0.167 h.

Q: What about the half-life [6] of the same compound?
A: Its half-life is greater than 48 h.

Q: And the CC50 ([2]; Homo sapiens, MCF7)?
A: Its CC50 is 11000 nM.
